Experimental data as given in patent US11554123B2, “Compositions and methods for reactivating latent HIV-1 infections” (Saint Joseph's University, priority 2017, dated 2023).
Where “and” joins values, the source holds several entries; their conditions need not be identical. Identical values can stand only once. Entries after “also recorded” stand apart in the source; their conditions may differ. Like-named read-outs stand apart in the source and are kept apart here.

Tests used:
Format in all cases: cell-based
[1] = system: latent HIV-1 in JLat10.6 cell line model of T-cell latency; conditions: for maximal effect in dose dependent reactivation (in words): compared with Alprazolam; for percentage of GFP+ live cells: 10 μM benzodiazepine used independently, 48 h, FIG. 1A, DMSO background 2.8%; for activation compared with the other tested benzodiazepines (in words): in the presence or absence of SAHA
[2] = system: H3K9ac at the integrated HIV-1 long terminal repeat (LTR); experiment: ChIP for H3K9ac at integrated HIV-1 LTR in TZMbl cells; conditions: 48 h; for H3K9ac at the HIV-1 LTR versus SAHA alone (in words): 50 μM Ro5-3335, 10 μM Alprazolam or 10 μM Clonazepam with 5 μM SAHA
Method: (§1) TZMbl cells were cultured with benzodiazepines for 48 hours before chromatin immunoprecipitation analysis. Following treatment, cells were processed for chromatin immunoprecipitation using the Pierce Agarose ChIP Kit (Fisher Scientific) using commercially available antibodies against histone H3 lysine 9 acetylation, STATS, and CBP/P300. Degree of occupancy at the integrated HIV-1 LTR was determined by qPCR using HIV-1 LTR specific primers run on a BioRad CFX384 qPCR machine using Sybr Green methodology.
In order to test the changes driven by these compounds, chromatin immunoprecipitation (ChIP) assays were performed to examine the presence of various proteins and modifications at the integrated HIV-1 long terminal repeat (LTR). TZMbl cells were treated for 48 hours with 50 μM Ro5-3335, 10 μM Alprazolam and 10 μM Clonazepam with or without 5 μM SAHA Acetylation of histone 3 at lysine 9 (H3K9ac) was first examined (FIG. 3B). […] None of the benzodiazepines were able to alter H3K9ac when used alone.

[3] = system: HIV-1 Gag mRNA; experiment: HIV-1 Gag mRNA (RTqPCR) in ex vivo treated PBMCs from HIV-1 patients; conditions: 24 h; for increase in HIV-1 Gag RNA: 10 μm Alprazolam
Method: (§2) To evaluate the ability of Alprazolam to reactivate latent cells from patients we obtained PBMCs from two HIV-1 patients who had been suppressed on therapy for greater than 6 months. 10×10^6 PBMCs were divided between three conditions: DMSO control, 50 μM Ro5-3335 and 10 μm Alprazolam. PBMCs were cultured in RPMI with 10% FBS and the given drugs for twenty-four hours. RNA was extracted from the cells and used for RTqPCR to detect HIV-1 Gag mRNA. RNA was extracted using Trizol reagent (Invitrogen) following manufacturer's protocol. Following reverse transcription, the samples were diluted 1:50, and 2.5 microliters were used for quantitative PCR in a BioRad CFX384 qPCR machine. All mRNA analyses were normalized to GAPDH. Nucleic acid amplification was tracked by SYBR Green method.
In order to evaluate the ability of Alprazolam to reactivate latent cells from patients, PBMCs were obtained from two HIV-1 patients who had been suppressed on therapy for greater than 6 months. 10×10^6 PBMCs were divided between three conditions: DMSO control, 50 μM Ro5-3335 and 10 μm Alprazolam. PBMCs were cultured in RPMI with 10% FBS and the given drugs for twenty-four hours. RNA was extracted from the cells and used for RTqPCR to detected HIV-1 Gag mRNA (FIG. 6). […] Treatment with Alprazolam produced detectable reactivation of HIV-1 transcripts.

[4] = system: acetylated histone 3 at lysine 9 (H3K9); experiment: NUCLEO-M imaging of acetylated H3K9 in isolated nuclei; conditions: FIG. 3A
Method: Transcriptionally competent nuclei were isolated from TZM-bl cells by chemical lysis and stored following manufacturer's recommendations (Nuclei Isolation Kit: Nuclei EZ Prep, Sigma-Aldrich, Nuc-101). Nuclei were stained for 1 hour on ice in 5% FBS/PBS solution containing primary antibodies. Nuclei were washed twice in 5% FBS/PBS and stained for 1 hour on ice with appropriate secondary antibodies conjugated with fluorescent dyes. Nuclei were finally washed twice in 5% FBS/PBS and resuspended in the storage buffer provided by the kit (Nuclei Isolation Kit: Nuclei EZ Prep, Sigma-Aldrich, Nuc-101).
Isolated nuclei and TZM-bl cells seeded on a chambered coverglass (NUNC® LAB-TEK® Chambered Coverglass, Thermo Fisher) were imaged with a Zeiss AXIOVERT® microscope with a Zeiss alpha PLAN-FLUAR® 100×, 1.45 N.A., oil objective and a spinning disk confocal scan head (Yokogawa CSU-X1). A 488 nm laser source with 488-25 nm, 617-73 nm and 692-40 nm emission filters were used for the illumination of Alexa Fluor® 488 dye (Thermo Fisher) or SYTO® RNA SELECT® Green Fluorescent cell Stain (Thermo Fisher), and PerCP-Cy5.5 (BD Biosciences) respectively. A 561 nm laser source with 568-25 nm emission filters was used for illumination of ALEXA FLUOR® 555 dye (Thermo Fisher). Digital images were captured sequentially by a high-speed EM-CCD camera with 100 ms exposure time (Photometrics EVOLVE® 512). […]

[5] = system: RUNX1 responsive genes; experiment: RUNX responsive gene expression (qPCR) in PBMCs from HIV-1 patients; conditions: PBMCs of three HIV-1 patients, 48 h
Method: as §2
Next, expression of several RUNX responsive genes in PBMCs in response to Ro5-3335 and Alprazolam was examined. Samples from three HIV-1 patients were treated with Alprazolam or Ro5-3335 for 48 hours. RNA was harvested using Trizol and cDNA was synthesized using RT reaction. qPCR was performed using primers for seven known RUNX1 responsive genes: APOBEC3C, APOBEC3G, Tbet, RUNX1 d, IL-2, IL7R and STAH (FIG. 5).

[6] = system: CBP/P300; experiment: ChIP for CBP/P300 at integrated HIV-1 LTR in TZMbl cells; conditions: for recruitment of CBP/P300 to the HIV-1 LTR: addition of 50 μM Ro5-3335 or 10 μM Alprazolam, 48 h, FIG. 3D
Method: as §1
Therefore, ChIP was performed for STATS to determine if benzodiazepine treatment might increase the recruitment of STATS above SAHA treatment (FIG. 3C). All three benzodiazepines were capable of driving recruitment of STATS to the promoter, and further recruitment was seen when used in combination with SAHA. STATS is capable of recruiting the histone acetyl transferase CBP/P300 that acetylates histone 3 at lysine 27, a residue that is not affected by SAHA. […] Addition of both Ro5-3335 and Alprazolam induced recruitment of CBP/P300 to the HIV-1 LTR (by 3 and 7 fold respectively).

[7] = target: T1, HIV-1 Tat (Human immunodeficiency virus type 1 group M subtype B, UniProt P04608); conditions: TZMbl cells transfected with Tat plasmid, 24 h treatment, FIG. 3E
T1 construct: expressed in transfected cells; host or cells: TZMbl cells
T1 sequence (P04608 whole entry): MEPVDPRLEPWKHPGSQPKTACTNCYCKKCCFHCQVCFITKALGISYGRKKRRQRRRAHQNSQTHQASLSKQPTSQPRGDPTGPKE

[8] = system: IL-17 promoter; experiment: IL-17 promoter luciferase reporter assay in 293T cells
[9] = system: JLat10.6 cells; experiment: JLat10.6 cell viability (live/dead staining); conditions: 48 h, DMSO control 97%
Method: […] Forty-eight hours after treatment, cells were stained for live dead staining using Live/Dead Red stain (BD Biosciences). Viability was determined by fluorescent detection of the live dead stain using a CYTEK® DxP12 flow cytometer. Comparison to untreated cells was used to determine degree of cell viability.
To examine safety of the treatment and effect on T-cell activation, Jlat10.6 cells were treated with different benzodiazepines with and without SAHA. Forty-eight hours after incubation, cells were harvested and stained with red live/dead staining according to the manufacturer protocol (LIVE/DEAD® Fixable Red Dead Cell Stain Kit, ThermoFisher Scientific) (FIG. 2A). Trichostatin A, used as a positive control induced toxicity (68% viable).

[10] = system: primary peripheral blood mononuclear cells (PBMCs) from healthy donors; experiment: T cell activation in primary PBMCs (CD69 flow cytometry); conditions: 10 μM Alprazolam in combination with 0.5 μM SAHA, 24 h
Method: To investigate whether alprazolam is specifically activating HIV-1 or having general effect on T cell activation (CD4 and CD8), primary PBMC from two healthy donors were treated with 10 μM, 50 μM Alprazolam or Ro5-3335 respectively alone or in combination with 0.5 μM SAHA. Twenty-four hours after treatment, cells were stained using Zombie yellow live and dead staining and then stained for CD3, CD8, CD4, CD69, and then fixed for analysis by flow cytometry. AntiCD3/CD28 and PHA were included as a positive control. Samples were analyzed on a CYTEK® DxP12 flow cytometer followed by analysis using FLOWJO® v10 software (Treestar)
In order to investigate whether alprazolam was specifically activating HIV-1 or having a general effect on T cell activation (CD4 and CD8), primary peripheral blood mononuclear cells (PBMCs) from two healthy donors were treated with 10 μM Alprazolam or 50 μM Ro5-3335, both alone or in combination with 0.5 μM SAHA. Twenty-four hours after treatment, cells were stained using Zombie yellow live and dead staining, then stained for CD3, CD8, CD4, CD69, and then fixed for analysis by flow cytometry. AntiCD3/CD28 and PHA were included as a positive control (FIG. 2B).

O=C1CN=C(c2ccccc2Cl)c2cc([N+](=O)[O-])ccc2N1 [Clonazepam]
maximal effect in dose dependent reactivation (in words) ([1]; alone, FIG. 1B): smaller maximal effect, but at lower doses | H3K9ac at the HIV-1 LTR versus SAHA alone (in words) [2]: potentiation was not seen

O=C1CN=C(c2ccc[nH]2)c2cc(Cl)ccc2N1 [Ro5-3335]
increase in HIV-1 transcripts (Gag mRNA) ([3]; 50 μM Ro5-3335 alone, two patients, versus DMSO control): 1.5 fold and 1.2 fold | activation of latent virus (in words) ([1]; Ro5-3335 by itself, without SAHA): did not activate the virus by itself | H3K9ac at the HIV-1 LTR versus SAHA alone (in words) [2]: potentiation was not seen | acetylated H3K9 in the nuclei (in words) ([4]; Ro5-3335 and SAHA): further increased the acetylation; also recorded: increase in acetylated histone 3 at lysine 9 | expression of seven selected RUNX responsive genes (in words) [5]: significantly altered the expression of five of the selected RUNX responsive genes | recruitment of CBP/P300 to the HIV-1 LTR [6]: 3 fold | luciferase expression driven by Tat (in words) [7]: significantly suppressed luciferase expression; also recorded: significant suppression of Tat | IL-17 promoter activity (in words) ([8]; all three conditions: alone, with SAHA, with RUNX1 overexpression): inhibited IL-17 promoter in a dose dependent fashion

O=C(CCCCCCC(=O)Nc1ccccc1)NO [SAHA, N-hydroxy-N′-phenyloctanediamide]
GFP+ cells ([1]; 0.5 uM SAHA alone, FIG. 1B): 5.9% | GFP+ cells ([1]; SAHA alone, FIG. 1A screen, DMSO 2.8%): 6.2% | occupancy of H3K9ac at the promoter (in words) ([2]; 5 μM SAHA alone, compared to DMSO control): increased the occupancy of H3K9ac | acetylated H3K9 in the nuclei (in words) ([4]; SAHA alone): increase in acetylated H3K9; also recorded: increase in acetylated histone 3 at lysine 9 | recruitment of CBP/P300 (in words) ([6]; SAHA alone): no increase in recruitment | IL-17 driven luciferase expression (in words) ([8]; SAHA treatment compared to control): increased IL-17 driven luciferase expression | viability ([9]; 0.5 μM SAHA): 94.6%

CN1C(=O)CN=C(c2ccccc2F)c2cc([N+](=O)[O-])ccc21 [Flunitrazepam]
percentage of GFP+ live cells [1]: 9.1%

Cc1nnc2n1-c1ccc(Cl)cc1C(c1ccccc1)=NC2 [Alprazolam]
T cell activation (in words) [10]: did not induce any significant T cell activation | T cell activation (in words) ([10]; listed as alprazolam): did not induce significant T-cell activation | increase in HIV-1 Gag RNA ([3]; Patient 1, versus DMSO control): 4.6 fold | increase in HIV-1 Gag RNA ([3]; Patient 2, versus DMSO control): 3.3 fold | percentage of GFP+ live cells [1]: 20.3% | GFP+ cells, dose dependent reactivation ([1]; alone, at 10 μM, FIG. 1B, DMSO control 2.8%): 25.5% | activation compared with the other tested benzodiazepines (in words) [1]: maximum activation | H3K9ac at the HIV-1 LTR versus SAHA alone (in words) [2]: further increased acetylation over SAHA alone | recruitment of CBP/P300 to the HIV-1 LTR [6]: 7 fold | luciferase expression driven by Tat (in words) [7]: additional activation beyond what was seen with Tat alone | IL-17 promoter luciferase activity (in words) ([8]; RUNX1 over expression): increased luciferase activity | IL-17 promoter activity (in words) ([8]; absence of SAHA or RUNX1 over expression, lowest dose 0.1 μM): statistically significant suppression | IL-17 promoter luciferase activity (in words) ([8]; in the presence of SAHA): no effect on luciferase activity

CN1C(=O)CN=C(c2ccccc2)c2cc(Cl)ccc21 [Diazepam]
percentage of GFP+ live cells [1]: 12.4% | activation compared with the other tested benzodiazepines (in words) [1]: maximum activation

O=C(O)C1N=C(c2ccccc2)c2cc(Cl)ccc2NC1=O (stereo not drawn) [Clorazepate]
maximal effect in dose dependent reactivation (in words) ([1]; alone, FIG. 1B): smaller maximal effect, but at lower doses | luciferase expression driven by Tat (in words) [7]: additional activation beyond what was seen with Tat alone

CC(/C=C/C(=O)NO)=C\[C@@H](C)C(=O)c1ccc(N(C)C)cc1 [Trichostatin A, [R-(E,E)]-7-[4-(Dimethylamino)phenyl]-N-hydroxy-4,6-dimethyl-7-oxo-2,4-heptadienamide]
viable cells ([9]; positive control): 68%
